{
  "source": "BindingDB's records for doi:10.1016/j.bmcl.2013.11.055",
  "about": "(Shanghai Hengrui Pharmaceutical, 2013)",
  "key": {"[1]": {"assay": "Antagonist activity at P2Y12 receptor in human platelet-rich plasma assessed as inhibition of ADP-induced platelet aggregation incubated for 5 mins prior to ADP-challenge by light transmission-based assay"}, "[2]": {"assay": "Antagonist activity at P2Y12 receptor in rat platelet-rich plasma assessed as inhibition of ADP-induced platelet aggregation incubated for 5 mins prior to ADP-challenge by light transmission-based assay"}},
  "data": [
    {"smiles": "CCCSc1nc(N[C@@H]2C[C@H]2c2ccc(F)c(F)c2)c2nnn([C@H]3[C@H](O)[C@H](O)[C@@H](O)[C@H]3F)c2n1", "values": [
      {"measurement": "IC50", "setting": "[1]", "value": 220, "unit": "nM"},
      {"measurement": "IC50", "setting": "[2]", "value": 290, "unit": "nM"}
    ]},
    {"smiles": "CCCSc1nc(N[C@@H]2C[C@H]2c2ccc(F)c(F)c2)c2nnn([C@@H]3C[C@H](OCC(F)F)[C@@H](O)[C@H]3O)c2n1", "values": [
      {"measurement": "IC50", "setting": "[2]", "value": 31300, "unit": "nM"}
    ]},
    {"smiles": "CCCSc1nc(N[C@@H]2C[C@H]2c2ccc(F)c(F)c2)c2nnn([C@@H]3C[C@H](OCC(F)CO)[C@@H](O)[C@H]3O)c2n1", "note": "(stereo not given in full)", "values": [
      {"measurement": "IC50", "setting": "[1]", "value": 4820, "unit": "nM"},
      {"measurement": "IC50", "setting": "[2]", "value": 410, "unit": "nM"}
    ]},
    {"smiles": "CCCSc1nc(N[C@@H]2C[C@H]2c2ccc(F)c(F)c2)c2nnn([C@@H]3C[C@H](OCC(O)CO)[C@@H](O)[C@H]3O)c2n1", "note": "(stereo not given in full)", "values": [
      {"measurement": "IC50", "setting": "[2]", "value": 148, "unit": "nM"}
    ]},
    {"smiles": "CCCSc1nc(N[C@@H]2C[C@H]2c2ccc(F)c(F)c2)c2nnn([C@@H]3C[C@H](F)[C@@H](O)[C@H]3O)c2n1", "values": [
      {"measurement": "IC50", "setting": "[1]", "value": 330, "unit": "nM"},
      {"measurement": "IC50", "setting": "[2]", "value": 110, "unit": "nM"}
    ]},
    {"smiles": "CCCSc1nc(N[C@@H]2C[C@H]2c2ccc(F)c(F)c2)c2nnn([C@@H]3C=C[C@@H](O)[C@H]3O)c2n1", "values": [
      {"measurement": "IC50", "setting": "[1]", "value": 1970, "unit": "nM"},
      {"measurement": "IC50", "setting": "[2]", "value": 850, "unit": "nM"}
    ]},
    {"smiles": "CCCSc1nc(N[C@@H]2C[C@H]2c2ccc(F)c(F)c2)c2nnn([C@H]3[C@H](O)[C@H](O)[C@@H](OCCO)[C@H]3F)c2n1", "values": [
      {"measurement": "IC50", "setting": "[1]", "value": 350, "unit": "nM"},
      {"measurement": "IC50", "setting": "[2]", "value": 480, "unit": "nM"}
    ]},
    {"smiles": "CCCSc1nc(N[C@@H]2C[C@H]2c2ccc(F)c(F)c2)c2nnn(C3[C@H](O)[C@H](O)[C@@H](O)[C@H]3O)c2n1", "note": "(stereo not given in full)", "values": [
      {"measurement": "IC50", "setting": "[1]", "value": 1730, "unit": "nM"},
      {"measurement": "IC50", "setting": "[2]", "value": 1250, "unit": "nM"}
    ]},
    {"smiles": "CCCSc1nc(N[C@@H]2C[C@H]2c2ccc(F)c(F)c2)c2nnn([C@H]3[C@H](O)[C@H](O)[C@@H](OCCO)[C@@H]3O)c2n1", "values": [
      {"measurement": "IC50", "setting": "[1]", "value": 11300, "unit": "nM"},
      {"measurement": "IC50", "setting": "[2]", "value": 1380, "unit": "nM"}
    ]},
    {"smiles": "CCCSc1nc(N[C@@H]2C[C@H]2c2ccc(F)c(F)c2)c2nnn([C@H]3[C@H](O)[C@H](O)[C@@H](O)[C@@H]3O)c2n1", "values": [
      {"measurement": "IC50", "setting": "[1]", "value": 16300, "unit": "nM"},
      {"measurement": "IC50", "setting": "[2]", "value": 650, "unit": "nM"}
    ]},
    {"smiles": "CCCSc1nc(N[C@@H]2C[C@H]2c2cccnc2)c2nnn([C@@H]3C[C@H](OCCO)[C@@H](O)[C@H]3O)c2n1", "values": [
      {"measurement": "IC50", "setting": "[2]", "value": 1520, "unit": "nM"}
    ]},
    {"smiles": "CCCSc1nc(N[C@@H]2C[C@H]2c2scnc2C)c2nnn([C@@H]3C[C@H](OCCO)[C@@H](O)[C@H]3O)c2n1", "values": [
      {"measurement": "IC50", "setting": "[2]", "value": 1810, "unit": "nM"}
    ]},
    {"smiles": "CCCSc1nc(N[C@@H]2C[C@H]2c2ccc(Cl)s2)c2nnn([C@@H]3C[C@H](OCCO)[C@@H](O)[C@H]3O)c2n1", "values": [
      {"measurement": "IC50", "setting": "[1]", "value": 280, "unit": "nM"},
      {"measurement": "IC50", "setting": "[2]", "value": 160, "unit": "nM"}
    ]},
    {"smiles": "CCCSc1nc(N[C@@H]2C[C@H]2c2ccc(F)c(F)c2)c2nnn([C@H]3[C@H](O)[C@H](O)[C@@H](OCCO)[C@@H]3F)c2n1", "values": [
      {"measurement": "IC50", "setting": "[1]", "value": 6350, "unit": "nM"}
    ]},
    {"smiles": "CCCSc1nc(N[C@@H]2C[C@H]2c2ccc(F)c(F)c2)c2nnn([C@H]3[C@H](O)[C@H](O)[C@@H](O)[C@@H]3F)c2n1", "values": [
      {"measurement": "IC50", "setting": "[1]", "value": 1670, "unit": "nM"}
    ]},
    {"smiles": "CCCSc1nc(N[C@@H]2C[C@H]2c2ccc(F)c(F)c2)c2nnn([C@@H]3C[C@H](OCCO)[C@@H](O)[C@H]3O)c2n1", "note": "[AR-C126532XX]", "values": [
      {"measurement": "IC50", "setting": "[1]", "value": 500, "unit": "nM"}
    ]}
  ]
}
